Source: PMC10174255, “Drug repurposing approach against chikungunya virus: an in vitro and in silico study” (Frontiers in Cellular and Infection Microbiology, 2023)
Several values for one entry are separate records, joined by “and”; a condition that tells them apart may be missing. Equal values may be shown once.

Key:
[1] = system: CHIKV; test: Viral RNA copy number by quantitative RT-PCR
[2] = MTT cytotoxicity assay; details: African green monkey
[3] = system: Vero CCL-81 cells; test: MTT cytotoxicity assay; details: for The maximum nontoxic concentration used for primary screening of drugs against CHIKV: Vero CCL-81, ≥90% cell viability
[4] = system: CHIKV; test: Time-of-addition assay (extra- and intracellular virus, FFU); details: for effectiveness at time points of addition: added 0, 3 and 6 h post infection; for reduction in extracellular virus titer compared to VC / reduction in intracellular virus titer compared to VC: 50 µM
[5] = system: CHIKV; test: Western blot of viral capsid (C) protein; assay type: cell-based, Chikungunya virus; details: posttreatment, maximal non-toxic concentration, normalized to β-actin
Experimental: To investigate the expression of viral proteins, a western blotting assay was performed. […] The cell cultures were subjected to different types of treatment with various concentrations of the appropriate drugs. Cells were lysed using the RIPA buffer and 2X laemmli buffer at 1:1 ratio. The cell culture lysates from uninfected, infected without treatment and infected treated cells were subjected to an electrophoretic run on 10% discontinuous SDS polyacrylamide gels followed by electroblotting onto nitrocellulose membranes. The membranes were then blocked for 30 minutes using phosphate-buffered saline (PBS) containing 5% bovine serum albumin. […] This monoclonal antibody is known to react with the capsid protein of CHIKV and was characterized and purified as described earlier ([Damle et al., 2016]). The membranes were thoroughly rinsed with tris-buffered saline with 0.1% Tween 20 (TBST) after overnight incubation (5 washes totaling a 20-minute soak with rocking), and then they were incubated with the appropriate horseradish peroxidase (HRP) conjugated anti-mouse IgG antibody for two hours while rocking. For developing the blot, ECL substrate (Thermo Scientific) was used in the dark. The image of the blot was captured using the Gel Documentation system (BioRad™, USA), and analysis was done. To quantify the protein signals (density) of the viral protein and housekeeping protein in each lane, ImageJ software was used. After calculating the signal values for each band, the background signals were subtracted from the signal. The relative level of viral protein was normalized to beta-actin (monoclonal antibody 15G5A11/E2, catalog no:MA1-140, Invitrogen, USA). Signal densities were determined using ImageJ software and were plotted using GraphPad Prism software version 7.

[6] = system: CHIKV; test: Antiviral assay (pre-, co-, posttreatment) with FFU readout; details: for anti chikungunya activity: Vero CCL-81, any treatment condition; for IC50 / anti-CHIKV activity in primary screening: FFU; for IC50: Vero CCL-81; for anti-CHIKV activity in primary screening: highest nontoxic concentration
[7] = system: CHIKV; test: Immunofluorescence assay (percent infected cells); details: posttreatment, IFA, compared to VC
[8] = posttreatment, 6.25 µM, VC 8.870
[9] = posttreatment, 12.5 µM, VC 8.870

Nc1nc(F)nc2nc[nH]c12 [2-Fluoroadenine]
effect on viral RNA copy number ([1]; pretreatment, 100 µM): significant reduction | CC50 [2]: 437 ± 320 µM | The maximum nontoxic concentration used for primary screening of drugs against CHIKV [3]: 100 µM | reduction in intra- and extracellular virus titer ([4]; 100 µM, time of addition 0, 3, 6 h): ~ 1 log10 | reduction in intra- and extracellular virus titers ([4]; 25 and 50 µM): Mild reduction | effectiveness at time points of addition [4]: effective at all three time points | viral antigen (C protein) expression [5]: significant reduction | anti chikungunya activity [6]: exhibit anti chikungunya activity | mean log10 viral titer/ml ([6]; posttreatment, 50 µM, VC 8.870): 7.686 log10 FFU/ml | IC50 ([6]; posttreatment): 7.59 µM | anti-CHIKV activity in primary screening ([6]; posttreatment): effective | Selectivity Index (SI) ([6]; pretreatment): 45.56 | mean log10 viral titer/ml ([6]; pretreatment, 50 µM, VC 8.665): 7.284 log10 FFU/ml | mean log10 viral titer/ml ([6]; pretreatment, 100 µM, VC 8.665): 7.185 log10 FFU/ml | IC50 ([6]; pretreatment): 9.59 µM | anti-CHIKV activity in primary screening ([6]; pretreatment): effective | reduction in percentage of infected cells [7]: prominently observed

CC(C)Cn1c(=O)n(C)c(=O)c2[nH]cnc21 [3-isobutyl 1-methylxanthine]
CC50 [2]: 177 ± 21.7 µM | The maximum nontoxic concentration used for primary screening of drugs against CHIKV [3]: 50 µM

C[C@@]12CCC[C@H]1[C@@H]1CC[C@H]3C[C@@H](O)CC[C@]3(C)[C@H]1CC2 [5-α-3-β-androstanol]
The maximum nontoxic concentration used for primary screening of drugs against CHIKV [3]: 12.5 µM | CC50 ([3]; read-out: CC50 value ± SE, Vero CCL-81, MTT, 0.78-200 µM): 23.5 ± 0.856 µM

COc1cccc2c1C(=O)c1c(O)c3c(c(O)c1C2=O)C[C@@](O)(C(=O)CO)C[C@@H]3O[C@H]1C[C@H](N)[C@H](O)[C@H](C)O1 [Doxorubicin]
effect on viral RNA copy number/titre ([1]; posttreatment): no decrease | effect on viral RNA copy number/titre ([1]; pretreatment): no decrease | CC50 [2]: 117 ± 8.25 µM | The maximum nontoxic concentration used for primary screening of drugs against CHIKV [3]: 25 µM | effect on intra- and extracellular virus particles ([4]; 25 µM, added at 0, 3 and 6 h): exerted reduction | reduction in intracellular virus titer ([4]; 12.5 and 6.25 µM): not as prominent as extracellular virus titer | viral antigen (C protein) expression [5]: significant reduction | anti chikungunya activity [6]: exhibit anti chikungunya activity | Selectivity Index (SI) ([6]; posttreatment): 18.24 | mean log10 viral titer/ml [6, 8]: 7.758 log10 FFU/ml | mean log10 viral titer/ml [6, 9]: 7.509 log10 FFU/ml | mean log10 viral titer/ml ([6]; posttreatment, 25 µM, VC 8.870): 7.376 log10 FFU/ml | IC50 ([6]; posttreatment): 6.41 µM | anti-CHIKV activity in primary screening ([6]; posttreatment): effective | Selectivity Index (SI) ([6]; pretreatment): 16.95 | mean log10 viral titer/ml ([6]; pretreatment, 12.5 µM, VC 8.665): 7.460 log10 FFU/ml | mean log10 viral titer/ml ([6]; pretreatment, 25 µM, VC 8.665): 7.333 log10 FFU/ml | IC50 ([6]; pretreatment): 6.9 µM | anti-CHIKV activity in primary screening ([6]; pretreatment): effective | reduction in percentage of infected cells [7]: prominently observed

COc1cc2c(cc1Cc1cccc(Cl)c1F)c(=O)c(C(=O)O)cn2[C@H](CO)C(C)C [Elvitegravir]
CC50 [2]: 12.7 ± 1.52 µM | The maximum nontoxic concentration used for primary screening of drugs against CHIKV [3]: 6.25 µM

CC[C@H]1CN2CCc3cc(OC)c(OC)cc3[C@@H]2C[C@@H]1C[C@H]1NCCc2cc(OC)c(OC)cc21 [Emetine]
effect on viral RNA copy number/titre ([1]; posttreatment): No significant reduction | CC50 [2]: > 200 µM | The maximum nontoxic concentration used for primary screening of drugs against CHIKV [3]: 200 µM | effect on intra- and extracellular virus titre ([4]; 200 µM, added at 6 h): significant reduction | effect on intra- and extracellular virus titer ([4]; 50-200 µM, added at 0 and 3 h): significantly reduced | anti chikungunya activity [6]: exhibit anti chikungunya activity | mean log10 viral titer/ml ([6]; posttreatment, 50 µM, VC 8.870): 7.802 log10 FFU/ml | mean log10 viral titer/ml ([6]; posttreatment, 100 µM, VC 8.870): 7.550 log10 FFU/ml | mean log10 viral titer/ml ([6]; posttreatment, 200 µM, VC 8.870): 7.306 log10 FFU/ml | IC50 ([6]; posttreatment): 4.24 µM | anti-CHIKV activity in primary screening ([6]; posttreatment): effective

O=C(O)Cc1ccc(-c2ccccc2)cc1 [Felbinac]
effect on viral RNA copy number/titre ([1]; pretreatment): did not have any effect | CC50 [2]: 525 ± 200 µM | The maximum nontoxic concentration used for primary screening of drugs against CHIKV [3]: 3.125 µM | anti chikungunya activity [6]: exhibit anti chikungunya activity | Selectivity Index (SI) ([6]; pretreatment): 2205.88 | mean log10 viral titer/ml ([6]; pretreatment, 1.56 µM, VC 8.665): 7.175 log10 FFU/ml | mean log10 viral titer/ml ([6]; pretreatment, 3.125 µM, VC 8.665): 7.040 log10 FFU/ml | IC50 ([6]; pretreatment): 0.238 µM | anti-CHIKV activity in primary screening ([6]; pretreatment): effective

Nc1cccc2c1CN(C1CCC(=O)NC1=O)C2=O (centres unmarked) [Lenalidomide]
The maximum nontoxic concentration used for primary screening of drugs against CHIKV [3]: 200 µM

CC(C)(C)C#Cc1cc(N(C(=O)[C@H]2CC[C@H](C)CC2)[C@H]2CC[C@H](O)CC2)c(C(=O)O)s1 [Lomibuvir]
effect on viral RNA copy number/titre ([1]; posttreatment): no change observed | CC50 [2]: 31.5 ± 9.63 µM | The maximum nontoxic concentration used for primary screening of drugs against CHIKV [3]: 6.25 µM | effect on virus titer ([4]; 3.125 µM, added at 3 and 6 h): small but significant reduction | effect on intra- and extracellular virus titer ([4]; 6.25 µM, added at 0, 3 and 6 h): significantly reduced | anti chikungunya activity [6]: exhibit anti chikungunya activity | Selectivity Index (SI) ([6]; posttreatment): 19.83 | mean log10 viral titer/ml [6, 8]: 7.655 log10 FFU/ml | IC50 ([6]; posttreatment): 1.59 µM | anti-CHIKV activity in primary screening ([6]; posttreatment): effective

Cc1ccc(NC(=O)c2ccc(CN3CCN(C)CC3)cc2)cc1Nc1nc(-c2cccnc2)cs1 [Masitinib]
cytotoxicity ([3]; Vero CCL-81, even at lowest concentrations): highly toxic

CC(C)(C(=O)c1cccnc1)c1cccnc1 [Metyrapone]
log10 viral RNA copy number ([1]; pretreatment, 200 µM, VC 9.670): 8.984 | CC50 [2]: 5600 ± 6100 µM | The maximum nontoxic concentration used for primary screening of drugs against CHIKV [3]: 200 µM | anti chikungunya activity [6]: exhibit anti chikungunya activity | Selectivity Index (SI) ([6]; pretreatment): 457.80 | mean log10 viral titer/ml ([6]; pretreatment, 100 µM, VC 8.665): 7.136 log10 FFU/ml | mean log10 viral titer/ml ([6]; pretreatment, 200 µM, VC 8.665): 7.115 log10 FFU/ml | IC50 ([6]; pretreatment): 12.2 µM | anti-CHIKV activity in primary screening ([6]; pretreatment): effective

Cc1nc2c(O)cccc2c(=O)[nH]1 [NU-1025]
The maximum nontoxic concentration used for primary screening of drugs against CHIKV [3]: 100 µM

Oc1ccc(/C=C/c2cc(O)cc(O)c2)cc1 [Resveratrol]
effect on viral RNA copy number/titre ([1]; posttreatment): No reduction | CC50 [2]: 40.9 ± 4.57 µM | The maximum nontoxic concentration used for primary screening of drugs against CHIKV [3]: 12.5 µM | effect on extracellular titer of virus ([4]; 6.25 µM, added at 3 and 6 h): mild but significant reduction | effect on intra- and extracellular virus titer ([4]; 12.5 µM, added at 0, 3 and 6 h): significant decrease | anti chikungunya activity [6]: exhibit anti chikungunya activity | Selectivity Index (SI) ([6]; posttreatment): 23.74 | mean log10 viral titer/ml [6, 8]: 8.261 log10 FFU/ml | mean log10 viral titer/ml [6, 9]: 7.486 log10 FFU/ml | IC50 ([6]; posttreatment): 1.72 µM | anti-CHIKV activity in primary screening ([6]; posttreatment): effective | reduction in percentage of infected cells [7]: prominently observed

CO[C@H]1C[C@@H]2CC[C@@H](C)[C@@](O)(O2)C(=O)C(=O)N2CCCC[C@H]2C(=O)O[C@H]([C@H](C)C[C@@H]2CC[C@@H](OC(=O)C(C)(CO)CO)[C@H](OC)C2)CC(=O)[C@H](C)/C=C(\C)[C@@H](O)[C@@H](OC)C(=O)[C@H](C)C[C@H](C)/C=C/C=C/C=C/1C [Temsirolimus]
decrease in RNA copy number of CHIKV compared to VC ([1]; posttreatment, 50 µM): 2.487 log10 | decrease in viral RNA copy number compared to VC ([1]; pretreatment, 50 µM): 0.809 log10 | CC50 [2]: 413 ± 378 µM | The maximum nontoxic concentration used for primary screening of drugs against CHIKV [3]: 50 µM | reduction in extracellular virus titer compared to VC ([4]; added at 0 h and 3 h): ~ 4 log10 | reduction in intracellular virus titer compared to VC ([4]; added at 0 h and 3 h): ~ 3 log10 | reduction in extracellular virus titer compared to VC ([4]; added at 6 h): ~ 3 log10 | reduction in intracellular virus titer compared to VC ([4]; added at 6 h): ~ 2 log10 | effectiveness at time points of addition [4]: effective at all the three time points | viral antigen (C protein) expression [5]: significant reduction | anti chikungunya activity [6]: exhibit anti chikungunya activity | reduction of CHIKV titre compared to VC ([6]; discussion summary): 4-5 log10 | Selectivity Index (SI) ([6]; posttreatment): 68.41 | mean log10 viral titer/ml ([6]; posttreatment, 25 µM, VC 8.870): 7.903 log10 FFU/ml | mean log10 viral titer/ml ([6]; posttreatment, 50 µM, VC 8.870): 3.678 log10 FFU/ml | IC50 ([6]; posttreatment): 6.04 µM | anti-CHIKV activity in primary screening ([6]; posttreatment): effective | Selectivity Index (SI) ([6]; pretreatment): 85.1 and 85.11 | mean log10 viral titer/ml ([6]; pretreatment, 25 µM, VC 8.665): 7.279 log10 FFU/ml | IC50 ([6]; pretreatment): 4.86 µM | anti-CHIKV activity in primary screening ([6]; pretreatment): effective | reduction in percentage of infected cells [7]: prominently observed
